In publication PMC7188728, “A phase I study investigation of metabolism, and disposition of [^14C]-anlotinib after an oral administration in patients with advanced refractory solid tumors” (Cancer Chemotherapy and Pharmacology, 2020):
Structures can show the parent of a compound that is named as a salt.

Experiments:
[1] = Mass balance: excretion of total radioactivity in urine and feces; type: in vivo, human
Experimental: The urine samples were collected before orally administration and 0–2648 h after orally administration. […] In the process of collecting urine and feces samples of the six patients, because of the excretion particularity of the drug, the samples were not collected continuously every day, but once a week or every 10 days. In this case, the calculation of excretion rate during non-collected days was the multiplication of the first-day excretion rate after non-collected days by the number of non-collected days.
Levels of radioactivity in plasma, urine, and extracts of fecal samples were determined by mixing individual samples with 5 mL scintillation cocktail and determined by counting directly in a liquid scintillation counter (LSC). Blood, fecal homogenates, and post extraction solids were combusted with OX-501 Biological Sample Oxidizer, the ^14CO2 formed were trapped directly in 15 mL scintillation cocktail, followed by counting with LSC. Samples were assayed with a liquid scintillation counter for 5 min.

[2] = Metabolite radio-profiling (LC-RAM, LC-MS/MS) of plasma, urine and feces; type: in vivo, human
Experimental: An equal volume of 2, 4, 8, 12, 24, and 96 h plasma sample was pooled by time-point across subject 03 ~ 06, to give six pooled plasma samples for metabolite profiling. An appropriate volume (3x, v/v) of acetonitrile was added to a portion of the pooled plasma sample, followed by vortexing ca. 2 min. After storage in a refrigerator for ca. 30 min, the mixture was centrifuged at ca. 10000 g at 4 °C for 10 min. The supernatant was then separated from the PES, which was suspended with water, followed by addition of methanol (2x, v/v) twice. The three extracts were combined and evaporated to dryness under a nitrogen stream by an N-Evap evaporator at room temperature. The residues were reconstituted with an appropriate volume of methanol:water (1:1, v/v) and centrifuged at ca. 10000 g at 4 ℃ for 10 min. The supernatant was subjected to HPLC radio-profiling.
Four pooled human urine samples (subject 03 ~ 06) were pooled from 0 to 432 h based on equal volume ratios from the individual patients across time intervals. In addition, three pooled urine samples (0–48, 48–120 and 360–432 h) (subjects 03–06) were prepared by pooling human urine samples across subjects and time points. Portion of the pooled urine sample was evaporated to a small volume under a nitrogen stream and extracted with methanol (3x, v/v) followed by centrifuged at ca. 10000 g at 4 ℃ for 10 min. The supernatant was reconstituted with an appropriate volume of methanol:water (1:1, v/v) and centrifuged at ca. 10000 g at 4 ℃ for 10 min. The supernatant was subjected to HPLC radio-profiling.
Four human fecal samples (0–432 h) were prepared by pooling feces from individual subjects (Subjects 03–06). In addition, three pooled human fecal samples (0–48, 48–120 and 360–432 h) were prepared by pooling feces samples across subjects and time points. The pooled fecal homogenate was extracted with methanol (3x, v/v) and the mixture was vortexed, and centrifuged at ca. 10000 g at 4 ℃ for 10 min. The supernatant was then separated from the PES, which was suspended with water, followed by addition of methanol twice. The three extracts were combined and evaporated to dryness under a nitrogen stream by an N-Evap evaporator at room temperature. The residues were reconstituted with an appropriate volume of methanol:water (1:1, v/v) and centrifuged at ca. 10000 g at 4 ℃ for 10 min prior to analysis.
HPLC coupled with radioactivity monitor (LC-RAM) was used to isolate and quantitate [^14C] anlotinib and its metabolites. The plasma and fecal extracts as well as urine supernatants were subjected to HPLC separation, fractionation, and eluent collection. The radioactivity in each fraction was monitored by solid scintillation counting using a Packard TopCount® NXT™ Microplate Counter. The radio-profiles were then reconstructed using ARC® Convert software. The peak area of each radioactivity peak/region was integrated using ARC® Evaluation software, and the percent distribution of each peak/region was calculated (%TRA for plasma or %Dose for urine and feces).
Metabolites were characterized and/or identified by LC–MS/MS in conjunction with on-line radioactivity detection. Structures of metabolites were proposed by interpretation of the mass spectral fragmentation pattern, as well as chromatographic behaviors and metabolic pathways.

[3] = test system: human cytochrome P450 3A4; design: method as in PMID 29441353; settings: in vitro; read-out: Half maximum inhibitory concentration; cited from earlier work
VEGFR2/KDR and VEGFR3 = test system: VEGFR2/KDR and VEGFR3; design: method as in PMID 29454091; settings: recombinant enzymes; cited from earlier work
[4] = design: method as in PMID 29620050; settings: rats and dogs; cited from earlier work

- Recovery of radioactivity in feces, average ([1]; 0 ~ 2648 h, six patients): 48.52 % dose
- Recovery of radioactivity in urine, average ([1]; 0 ~ 2648 h, six patients): 13.51 % dose
- Total recovery rate of radioactivity (urine and feces), average ([1]; 0 ~ 2648 h, six patients): 62.03 % dose
- Feces (% dose) ([1]; Subject 01, 0 ~ 2648 h): 50.73 % dose
- Total recovery rate (% dose) ([1]; Subject 01, 0 ~ 2648 h): 66.24 % dose
- Urine (% dose) ([1]; Subject 01, 0 ~ 2648 h): 15.51 % dose
- Feces (% dose) ([1]; Subject 02, 0 ~ 2648 h): 42.51 % dose
- Total recovery rate (% dose) ([1]; Subject 02, 0 ~ 2648 h): 60.96 % dose
- Urine (% dose) ([1]; Subject 02, 0 ~ 2648 h): 18.45 % dose
- Feces (% dose) ([1]; Subject 03, 0 ~ 2648 h): 38.93 % dose
- Total recovery rate (% dose) ([1]; Subject 03, 0 ~ 2648 h): 50.92 % dose
- Urine (% dose) ([1]; Subject 03, 0 ~ 2648 h): 11.99 % dose
- Feces (% dose) ([1]; Subject 04, 0 ~ 2648 h): 56.80 % dose
- Total recovery rate (% dose) ([1]; Subject 04, 0 ~ 2648 h): 69.09 % dose
- Urine (% dose) ([1]; Subject 04, 0 ~ 2648 h): 12.29 % dose
- Feces (% dose) ([1]; Subject 05, 0 ~ 2648 h): 59.44 % dose
- Total recovery rate (% dose) ([1]; Subject 05, 0 ~ 2648 h): 71.86 % dose
- Urine (% dose) ([1]; Subject 05, 0 ~ 2648 h): 12.42 % dose
- Feces (% dose) ([1]; Subject 06, 0 ~ 2648 h): 42.69 % dose
- Total recovery rate (% dose) ([1]; Subject 06, 0 ~ 2648 h): 53.08 % dose
- Urine (% dose) ([1]; Subject 06, 0 ~ 2648 h): 10.39 % dose
- Radioactive concentration in feces ([1]; after 404–432 h): 4876 DPM/ml
- Radioactive concentration in urine ([1]; after 404–432 h): 279 DPM/ml
- Drug-related component in feces, % of the dose ([2]; feces, pooled 0–432 h, subjects 03–06, single oral 14.15 mg/120 μCi): 5.64 % of the dose
- Drug-related component in human plasma (radio-profile) ([2]; pooled plasma 2–96 h, subjects 03–06, listed as parent drug): major drug-related component
- Drug-related component in urine, % of the dose ([2]; urine, pooled 0–432 h, subjects 03–06, single oral 14.15 mg/120 μCi): 0.73 % of the dose
SMILES: COc1cc2c(Oc3ccc4[nH]c(C)cc4c3F)ccnc2cc1OCC1(N)CC1 [anlotinib, 1-[[4-(4-fluoro-2-methyl-1H-indol-5-yloxy)-6-methoxyquinolin-7-yl]oxy]methyl) cyclopropanamine dihydrochloride]
- IC50 [3]: 110 nM
- Capability to inhibit VEGFR2/KDR and VEGFR3, times stronger compared with sorafenib (VEGFR2/KDR and VEGFR3): ~500 times
- Capability to inhibit VEGFR2/KDR and VEGFR3, times stronger compared with sunitinib (VEGFR2/KDR and VEGFR3): approximately 20 times
- Absorption [4]: absorbed quickly
- Membrane permeability [4]: good membrane permeability
